Assay results: ChEMBL document CHEMBL1201862, “PubChem BioAssay data set” (2004)
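Values below derive from 48-hour exposures of cells grown in 96-well plates, with endpoints linearly interpolated between the two concentrations bracketing the appropriate inhibition level. At the GI50, growth is halved.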 Activity calls are given as the source filed them. Cut-off read from the data, not from the text of the source: active = GI50 up to about 1.1 µM and inactive = higher.

How the values were obtained:
Test in all cases: inhibition of tumour cell growth, NCI panel, 48 h
[1] = tested on: 786-0
[2] = tested on: A498
[3] = tested on: ACHN
[4] = tested on: COLO 205
[5] = tested on: HCT-15
[6] = tested on: HL-60
[7] = tested on: HOP-92
[8] = tested on: KM12
[9] = tested on: LOX IMVI
[10] = tested on: Malme-3M
[11] = tested on: NCI-H460
[12] = tested on: OVCAR-4
[13] = tested on: RXF 393
[14] = tested on: SF-295
[15] = tested on: SK-MEL-2
[16] = tested on: SK-OV-3
[17] = tested on: SN12C
[18] = tested on: SNB-19
[19] = tested on: SNB-75
[20] = tested on: UO-31

Row | Structure (SMILES) | GI50 [1] | GI50 [2] | GI50 [3] | GI50 [4] | GI50 [5] | GI50 [6] | GI50 [7] | GI50 [8] | GI50 [9] | GI50 [10] | GI50 [11] | GI50 [12] | GI50 [13] | GI50 [14] | GI50 [15] | GI50 [16] | GI50 [17] | GI50 [18] | GI50 [19] | GI50 [20]
1 | COc1ccc(/C=C(/C)[N+](=O)[O-])cc1 | 1.26 µM (inactive) | 2.7 µM (inactive) | 1.99 µM (inactive) | 2.08 µM (inactive) | 2.28 µM | 2.62 µM (inactive) | 2 µM (inactive) | 1.67 µM (inactive) | 1.48 µM (inactive) | 2.11 µM (inactive) | 2.18 µM (inactive) | 3.09 µM (inactive) | 1.69 µM (inactive) | 6.84 µM (inactive) | 4.95 µM (inactive) | 5.98 µM (inactive) | 2.1 µM (inactive) | 5.86 µM (inactive) | 1.26 µM (inactive) | 1.67 µM (inactive)
2 | CC1NOC(=O)C1/N=N/c1cccc(Cl)c1 (stereo not given) | 30.2 µM (inactive) | 17.3 µM (inactive) | 40.9 µM (inactive) | 20.5 µM (inactive) | 17.7 µM | 18.4 µM (inactive) | 26.4 µM (inactive) | 40.7 µM (inactive) | 28.8 µM (inactive) | 29.7 µM (inactive) | 31.2 µM (inactive) | 32.9 µM (inactive) | 22.8 µM (inactive) | 34 µM (inactive) | 16.5 µM (inactive) | 28.8 µM (inactive) | 21.7 µM (inactive) | 37.7 µM (inactive) | 36.1 µM (inactive) | 35.6 µM (inactive)
3 | Cc1cc(-c2nc3cccc(F)c3s2)ccc1N | > 56.2 µM (inactive) | > 58.6 µM (inactive) | > 74.1 µM (inactive) | > 100 µM (inactive) | > 67.6 µM | 13.3 µM (inactive) | > 50.8 µM (inactive) | > 57.1 µM (inactive) | > 63.2 µM (inactive) | > 100 µM (inactive) | > 20.4 µM (inactive) | > 27.2 µM (inactive) | > 71 µM (inactive) | > 65 µM (inactive) | > 85.3 µM (inactive) | > 100 µM (inactive) | > 45.8 µM (inactive) | > 80.2 µM (inactive) | > 51.4 µM (inactive) | > 45 µM (inactive)
4 | COC(=O)c1c(C)[nH]c2c1C(=O)C(=O)c1nc(C)c(C)nc1-2 | 10.4 µM (inactive) | 2.92 µM (inactive) | 2.85 µM (inactive) | 8.63 µM (inactive) | 9.98 µM | 9.23 µM (inactive) | 5.79 µM (inactive) | 10.8 µM (inactive) | 5.79 µM (inactive) | 3.58 µM (inactive) | 5.27 µM (inactive) | 12.9 µM (inactive) | 1.98 µM (inactive) | 4.54 µM (inactive) | 3.86 µM (inactive) | 3.5 µM (inactive) | 2.84 µM (inactive) | 4.76 µM (inactive) | 1.21 µM (inactive) | 10.1 µM (inactive)
5 | ClCCCSSCCCCl | 30.2 µM (inactive) | 38.7 µM (inactive) | 43.8 µM (inactive) | 32.1 µM (inactive) | 22 µM | 3.86 µM (inactive) | 16.2 µM (inactive) | 32.3 µM (inactive) | 27.2 µM (inactive) | 32.3 µM (inactive) | 35.6 µM (inactive) | 42.7 µM (inactive) | 48.9 µM (inactive) | 37.5 µM (inactive) | 40.2 µM (inactive) | 44 µM (inactive) | 29.4 µM (inactive) | > 100 µM (inactive) | 37.8 µM (inactive) | 30.7 µM (inactive)
6 | O=C(c1ccc(Cl)cc1)c1ccc(OCC(=O)N2CCN(c3ccccc3)CC2)cc1 | > 100 µM (inactive) | 32.1 µM (inactive) | > 100 µM (inactive) | > 100 µM (inactive) | > 100 µM | > 100 µM (inactive) | > 100 µM (inactive) | > 100 µM (inactive) | > 100 µM (inactive) | > 100 µM (inactive) | > 100 µM (inactive) | > 100 µM (inactive) | > 100 µM (inactive) | > 100 µM (inactive) | > 100 µM (inactive) | > 100 µM (inactive) | > 100 µM (inactive) | > 100 µM (inactive) | > 100 µM (inactive) | > 100 µM (inactive)
7 | O=C1CSC(c2cccc(Oc3ccccc3)c2)N1c1cc(Cl)ccc1Cl (stereo not given) | 18.2 µM (inactive) | 32.6 µM (inactive) | 24 µM (inactive) | 36.7 µM (inactive) | 23.8 µM | 27.3 µM (inactive) | 16.4 µM (inactive) | 26.4 µM (inactive) | 20 µM (inactive) | 27.5 µM (inactive) | 20.1 µM (inactive) | 17.2 µM (inactive) | 18.5 µM (inactive) | 23 µM (inactive) | 18.7 µM (inactive) | 39.8 µM (inactive) | 19.5 µM (inactive) | 22.8 µM (inactive) | 26.4 µM (inactive) | 23.3 µM (inactive)
